Data taken from PMC11727334, “A self-immolative Kdn-glycoside substrate enables high-throughput screening for inhibitors of Kdnases” (Glycobiology, 2024).
“Also recorded” adds a separate entry of the source. Where two headings read alike, the source gives them in different places.

Experiments:
AfK [1] = target: T1, AfK (Aspergillus fumigatus, UniProt Q4WQS0); assay: HTS assay of AfK activity using Kdn glycoside 4 (384-well, stop solution); type: biochemical; settings: for inhibitory activity verified in repeat assay of HTS hits: TargetMol library pilot screen
T1 construct: AfK was expressed and purified as described by Telford et al; made in house
T1 sequence (Q4WQS0 21-406): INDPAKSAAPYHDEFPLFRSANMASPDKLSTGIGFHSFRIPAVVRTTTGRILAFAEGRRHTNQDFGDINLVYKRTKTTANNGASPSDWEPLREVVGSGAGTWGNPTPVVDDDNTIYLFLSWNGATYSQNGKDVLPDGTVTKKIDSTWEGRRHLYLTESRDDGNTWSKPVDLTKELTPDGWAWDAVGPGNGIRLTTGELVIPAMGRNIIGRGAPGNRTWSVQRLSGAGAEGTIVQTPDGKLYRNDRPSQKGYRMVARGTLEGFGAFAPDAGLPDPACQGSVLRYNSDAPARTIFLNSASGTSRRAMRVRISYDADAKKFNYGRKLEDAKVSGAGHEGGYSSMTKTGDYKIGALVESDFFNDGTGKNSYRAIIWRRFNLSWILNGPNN
Method: We next miniaturized our assay for use in a 384-well microplate format by optimizing the quantity of detergent and checking for fluorescent signal stability (Figs 2A,S6 and S7 Supporting Information). In each well, we added a solution of buffer containing AfK (50 nM) and then added a library compound using a pin tool. We included both detergent (0.2% (v/v) Tween-20) and BSA (0.01% BSA) to reduce false positives arising from aggregation prone compounds ([Feng et al. 2007]). We then equilibrated the mixture prior to the addition of substrate 4, and the resultant solution was incubated for 1 h after which stop solution was added. To ensure cyclization was complete, the mixture was allowed to react for 1 h prior to measuring the fluorescence. Candidate hits identified in this primary screen were cherry picked and delivered into a gold plate that was used to confirm hits.
To each well in a 384-well microplate, enzyme (20 μL of a 50 nM stock solution) in reaction buffer (100 mM NaOAc, 0.2% Tween-20, 0.01% BSA, pH 4) was added to a library compound (200 nL of 20 μM TargetMol, 10 μM Chembridge), and this mixture was incubated at rt for 1 h. Then, substrate 4 (20 μL of a 50 μM stock) was added and the resultant mixture was incubated at rt for an additional 1 hr. Following addition of stop solution (40 μL of 1 M aqueous K2CO3, pH ≈ 12) to the mixture the plate was incubated for 1 h at rt. Next, the fluorescence for each well was measured (BioTek Neo 2) using an excitation and an emission wavelength of 360 and 450 nm, respectively. The collected data was analyzed using Prism 7.0. We used the known mechanism-based inactivator 2,3-diF-Kdn (3) as the positive control ([Watts et al. 2006]; [Khazaei et al. 2015]). That is, using 2,3-diFKdn at a concentration of 30 μM, following a 10 min incubation, gives a background signal that equates to >90% inhibition.

neuraminidase MvNA = neuraminidase MvNA (Micromonospora viridifaciens, UniProt Q02834); assay: Inhibition assay of the sialidase MvNA using Kdn4MU as substrate; type: biochemical; settings: for Hill coefficient: Table 1, 37 °C, pH 5.5
Chain of neuraminidase MvNA (Q02834 38-647): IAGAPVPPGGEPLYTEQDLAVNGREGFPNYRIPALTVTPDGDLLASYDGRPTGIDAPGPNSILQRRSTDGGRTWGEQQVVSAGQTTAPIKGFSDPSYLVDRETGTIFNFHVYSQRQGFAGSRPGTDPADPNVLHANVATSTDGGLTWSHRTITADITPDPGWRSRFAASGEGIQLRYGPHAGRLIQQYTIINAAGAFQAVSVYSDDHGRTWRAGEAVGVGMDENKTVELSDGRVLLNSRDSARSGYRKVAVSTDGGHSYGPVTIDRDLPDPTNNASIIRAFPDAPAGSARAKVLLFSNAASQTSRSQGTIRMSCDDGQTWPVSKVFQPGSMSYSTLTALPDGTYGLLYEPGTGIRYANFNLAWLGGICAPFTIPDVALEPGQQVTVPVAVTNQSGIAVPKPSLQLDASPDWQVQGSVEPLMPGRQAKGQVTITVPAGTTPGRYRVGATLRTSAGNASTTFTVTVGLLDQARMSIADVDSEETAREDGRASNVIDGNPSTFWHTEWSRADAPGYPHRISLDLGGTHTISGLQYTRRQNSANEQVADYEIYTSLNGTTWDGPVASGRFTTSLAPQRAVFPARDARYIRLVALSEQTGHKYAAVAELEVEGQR
Excerpt: (§1) We purchase fresh commercial material for compounds 13 and 14 and performed inhibition assays using recombinant AfK (Methods, Fig. S8, Supporting Information). We determined IC50 values in quadruplicate using 4MU-Kdn as the substrate ([Yeung et al. 2013]). […] We submitted both compounds to a pan-assay interference compounds (PAINS) filter, a compilation of chemical substructures known to show promiscuous biological activities ([Baell and Nissink 2018]). […] We performed standard inhibition assays as described earlier using inhibitor 13 and these recombinant enzymes. […] We also tested inhibitor 13 with the sialidase MvNA, the closest structural homologue to AfK, that is known to cleave a multitude of substrates including Kdn glycosides ([Telford et al. 2011]).
Each 200 μM reaction mixture was incubated at rt for 2 min prior to the addition of purified sialidase. […] The kinetic parameters were determined from initial rate measurements using a substrate concentration of Km/4. The progress of the reaction was continuously monitored for 15 min using a fluorescence spectrophotometer (BioTek Neo 2) and excitation and emission wavelengths of 360 and 450 nm, respectively.

[2] = target: Aspergillus terreus Kdnase (AtK) (Aspergillus terreus, UniProt Q0CMX0); assay: Inhibition assay of recombinant AtK using Kdn4MU as substrate; type: biochemical; settings: for Hill coefficient: pH 4.0
Chain of Aspergillus terreus Kdnase (AtK) (Q0CMX0 entry or part of it): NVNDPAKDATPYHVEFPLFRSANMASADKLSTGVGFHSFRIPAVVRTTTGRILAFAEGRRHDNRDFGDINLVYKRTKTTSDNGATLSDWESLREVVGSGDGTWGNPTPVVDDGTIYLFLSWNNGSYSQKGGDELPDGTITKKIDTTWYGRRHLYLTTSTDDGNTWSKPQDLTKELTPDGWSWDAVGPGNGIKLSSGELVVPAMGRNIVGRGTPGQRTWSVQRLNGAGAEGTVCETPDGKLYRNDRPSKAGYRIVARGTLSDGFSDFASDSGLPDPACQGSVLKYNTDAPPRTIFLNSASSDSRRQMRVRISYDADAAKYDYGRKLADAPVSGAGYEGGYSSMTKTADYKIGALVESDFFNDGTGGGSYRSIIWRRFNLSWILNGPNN
Excerpt: as §1
(§2) Each 200 μM reaction mixture was incubated at rt for 2 min prior to the addition of purified sialidase. Inhibitor was added to the reaction mixture and allowed to incubate at rt between 0–60 min in 100 mM sodium acetate buffer pH 4.0 and 0.01% BSA prior to the addition of substrate. The kinetic parameters were determined from initial rate measurements using a substrate concentration of Km/4. The progress of the reaction was continuously monitored for 15 min using a fluorescence spectrophotometer (BioTek Neo 2) and excitation and emission wavelengths of 360 and 450 nm, respectively.

[3] = target: T2, Kdnase produced by A. fumigatus (AfK) (Aspergillus fumigatus, UniProt Q4WQS0); assay: Inhibition assay of recombinant AfK using 4MU-Kdn as substrate; type: biochemical; settings: for mode of inhibition (Lineweaver-Burk plots) / fold lower IC50 value than that reported for Kdn2en 2: AfK; for fold lower IC50 value than that reported for Kdn2en 2: Kdn2en value from Yeung et al. 2013; for Hill coefficient: pH 4.0
T2 construct: AfK was expressed and purified as described by Telford et al; made in house
T2 sequence (Q4WQS0 21-406): as the sequence (Q4WQS0 21-406) above
Excerpt: as §1, §2

TrK = assay: Differential scanning fluorimetry (DSF) thermal shift assay, TrK; type: binding, Trichophyton rubrum; settings: for Thermal shift (ΔTm) relative to DMSO (2.5%) control: Table S4; for Thermal shift (ΔTm) relative to DMSO (2.5%) control / protein melting temperature (DSF, Table S3): inhibitor 500 µM; for effect on thermal stability of the folded enzyme (DSF, in words): TrK; for protein melting temperature (DSF, Table S3): 100 mM pH 4.0 NaOAc, 5–10 µM enzyme
Excerpt: (§3) We next used a separate biophysical technique, differential scanning fluorimetry (DSF), to confirm that these compound bind to the various Kdnases. Specifically, we measured protein melting temperatures in the presence of Kdn2en (2) and candidate ligands 13 and 17 (Fig. 3D). […] We repeated this DSF assay on AtK and TrK and we observed similar trends in thermal shifts (Fig. S14 and Tables S2,S3 and S4, Supporting Information). […] Accordingly, further follow up on this compound would need to be pursued with an awareness of this possibility.
(§4) Table S3. Differential scanning fluorometry-based (DSF) assay for inhibitors 2, 13, and 17 binding to Af, At, Tr and MvNA. Protein thermal shifts(ΔTm) using DMSO (2.5%), and inhibitors 2, 13, and 17 at 500 µM against the Kdnase of Af, At, Tr and MvNA. Assay done using 5–10 µM enzyme and 100 mM pH 4.0 NaOAc (pH 5.5 MvNA). A temperature range of 25°C to 95°C was used with a gradient of 0.05°C/sec. […]
(§5) Table S4. Thermal shifts (ΔTm) for stabilization of AfK, AtK, TrK and MvNA on inhibitor binding relative to the DMSO (2.5%) control. […]

MvNA = MvNA (Micromonospora viridifaciens, UniProt Q02834); assay: Differential scanning fluorimetry (DSF) thermal shift assay, MvNA; type: binding; settings: inhibitor 500 µM; for ΔTm at 500 µM: Table S4, read-out: Thermal shift (ΔTm) relative to DMSO (2.5%) control; for protein melting temperature (DSF, Table S3): pH 5.5, 5–10 µM enzyme
Chain of MvNA (Q02834 38-647): as the sequence (Q02834 38-647) above
Method: as §4, §5

AfK [4] = target: T1, AfK; assay: Differential scanning fluorimetry (DSF) thermal shift assay, AfK; type: binding; settings: for effect on thermal stability of the folded enzyme (DSF, in words): AfK; for protein melting temperature (DSF, Table S3): inhibitor 500 µM, 100 mM pH 4.0 NaOAc, 5–10 µM enzyme; for ΔTm at 500 µM: read-out: Thermal shift (ΔTm) relative to DMSO (2.5%) control
Excerpt: as §3, §4, §5

AtK = assay: Differential scanning fluorimetry (DSF) thermal shift assay, AtK; type: binding, Aspergillus terreus; settings: for Thermal shift (ΔTm) relative to DMSO (2.5%) control: Table S4; for Thermal shift (ΔTm) relative to DMSO (2.5%) control / protein melting temperature (DSF, Table S3): inhibitor 500 µM; for protein melting temperature (DSF, Table S3): 100 mM pH 4.0 NaOAc, 5–10 µM enzyme
Excerpt: as §3, §4, §5

[5] = target: Trichophyton rubrum Kdnase (TrK) (Trichophyton rubrum, UniProt A0A178EUH2); assay: Inhibition assay of recombinant TrK using Kdn4MU as substrate; type: biochemical; settings: for Hill coefficient: pH 4.0
Chain of Trichophyton rubrum Kdnase (TrK) (A0A178EUH2 entry or part of it): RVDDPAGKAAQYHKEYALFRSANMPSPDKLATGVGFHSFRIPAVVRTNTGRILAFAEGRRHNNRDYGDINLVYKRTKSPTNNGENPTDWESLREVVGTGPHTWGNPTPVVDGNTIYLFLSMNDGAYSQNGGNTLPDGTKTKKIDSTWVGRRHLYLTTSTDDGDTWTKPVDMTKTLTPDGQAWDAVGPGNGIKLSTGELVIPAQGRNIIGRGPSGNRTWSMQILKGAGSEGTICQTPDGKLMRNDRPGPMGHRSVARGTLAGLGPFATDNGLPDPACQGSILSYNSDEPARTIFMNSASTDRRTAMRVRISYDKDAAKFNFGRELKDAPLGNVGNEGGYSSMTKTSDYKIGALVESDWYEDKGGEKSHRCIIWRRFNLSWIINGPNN
Excerpt: as §1, §2

[6] = Table 1, 37 °C, Kdn4MU substrate, NaOAc 100 mM pH 4.0, 0.01% BSA, read-out: IC50
[7] = Table 1, calculated Ki = IC50/(([S]/Km) + 1), read-out: Ki
[8] = Table S2, values from this work
[9] = Table 1, calculated Ki = IC50/(([S]/Km) + 1)

| Compound | IC50 (neuraminidase MvNA) | Hill coefficient (neuraminidase MvNA) | Hill coefficient ([2]; Table 1, 37 °C) | inhibitory activity verified in repeat assay of HTS hits (AfK [1]) | mode of inhibition (Lineweaver-Burk plots) [3] | fold lower IC50 value than that reported for Kdn2en 2 [3] | IC50 [3, 6] | Hill coefficient ([3]; Table 1, 37 °C) | Ki [3, 7] | Hill [3, 8] | Thermal shift (ΔTm) relative to DMSO (2.5%) control (TrK) | effect on thermal stability of the folded enzyme (DSF, in words) (TrK) | protein melting temperature (DSF, Table S3) (TrK) | ΔTm at 500 µM (MvNA) | protein melting temperature (DSF, Table S3) (MvNA) | effect on thermal stability of the folded enzyme (DSF, in words) (AfK [4]) | protein melting temperature (DSF, Table S3) (AfK [4]) | ΔTm at 500 µM (AfK [4]) | Thermal shift (ΔTm) relative to DMSO (2.5%) control (AtK) | protein melting temperature (DSF, Table S3) (AtK) | other results |
| --- | --- | --- | --- | --- | --- | --- | --- | --- | --- | --- | --- | --- | --- | --- | --- | --- | --- | --- | --- | --- | --- |
| O=C(O)[C@]1(F)O[C@@H]([C@H](O)[C@H](O)CO)[C@H](O)[C@@H](O)[C@H]1F [compound 3, 2,3-diF-α-Kdn] | – | – | – | – | – | – | – | – | – | – | – | – | – | – | – | – | – | – | – | – | inhibition at 30 µM (AfK [1]; 30 μM, 10 min incubation): > 90%; activity at 30 µM (AfK [1]; 30 μM, reacted with AfK for 10 min, read-out: fluorescent signal relative to the uninhibited sample): < 10%; Hill Slope (AfK [1]; following incubation (10 min)): -1.2; IC50 (AfK [1]; following incubation (10 min), read-out: apparent IC50): 3.1 µM |
| O=C(/C=C/c1ccc(O)c2c1[C@H](C(=O)O)[C@@H](c1ccc(O)c(O)c1)O2)O[C@H](Cc1ccc(O)c(O)c1)C(=O)O [compound 13, lithospermic acid] | 347 ± 2 µM | −0.90 | −1.36 | inhibit AfK | competitive inhibitors | 24 fold | 22.8 ± 1 µM | −1.32 | 18.7 µM | –1.32 | +13.7 ± 0.1 °C | does stabilize TrK | 48.4 ± 0.1 °C | 1 °C | 54.9 ± 0.4 °C | stabilizes neither AfK; also recorded: no effect on the stability of AfK | 51.4 ± 0.1 °C | -0.1 °C | –0.8 ± 0.1 °C | 51.1 ± 0.1 °C | IC50 [2]: 14.4 ± 0.07 µM; mode of inhibition ([2]; AtK): competitively inhibited; time-dependent inhibition ([3]; time points 0, 10 and 60 mins, 50 µM Kdn4MU 1 substrate): no time dependent changes in calculated IC50 values; IC50 [5]: 11.8 ± 0.1 µM; Hill coefficient ([5]; Table 1, 37 °C): −0.80; mode of inhibition ([5]; TrK): competitively inhibited |
| CC(C)(C)c1cc(C=C(C#N)C#N)cc(C(C)(C)C)c1O [compound 14, Tyrphostin A9, reference compound] | – | – | – | inhibit AfK | competitive inhibitors | – | – | – | – | –0.92 | – | – | – | – | – | – | – | – | – | – | IC50 [3]: 65.8 ± 1.7 µM; Ki [3]: 58.4 µM |
| O=C1NC[C@@]2(C(=O)O)CN(Cc3ccc(C4CCCCC4)s3)C[C@@H]12 [compound 17] | 6.6 ± 0.6 µM | −0.89 | −0.88 | – | competitive inhibitor | 5 fold | 115 ± 2 µM | −0.81 | 74.7 µM | –0.81 | +16.2 ± 0.1 °C | stabilizes all three Kdnases | 50.9 ± 0.1 °C | 5.2 °C | 59.1 ± 0.1 °C | stabilizes all three Kdnases; also recorded: positive unfolding temperature shifts | 54.6 ± 0.1 °C | 3.1 °C | +3.5 ± 0.1 °C | 55.4 ± 0.1 °C | IC50 [2, 6]: 50 ± 1.2 µM; Ki [2, 9]: 38.5 µM; IC50 ([3]; Table S2, Kdn4MU substrate, sodium acetate 100 mM pH 4.0, 0.01% BSA, 37 C, values from this work, read-out: IC50): 115 ± 2 µM; inhibition of AfK in standard inhibition assay ([3]; purchased compounds, 4MU-Kdn 1 as substrate): inhibited AfK; effect on thermal stability of the folded enzyme (DSF, in words) (AtK; AtK): stabilizes all three Kdnases; IC50 [5, 6]: 93.3 ± 0.8 µM; Hill coefficient ([5]; Table 1, 37 °C): −1.11; Ki [5, 9]: 73.3 µM |
